According to patent US20160152942A1, “METHOD FOR ISOLATING HIGHLY FURFURAL RESISTANT STRAIN AND STRAIN ISOLATED BY THE METHOD” (priority 2014, published 2016):
Where two headings read alike, the source gives them in different places.

Legend:
Assay type in all cases: cell-based
[1] = tested on: Enterobacter cloacae strain GGT036 [Accession No. KCTC 12672BP]; assay: Resistance to furfural, growth by turbidity (Test Example 1); settings: 30 mM furfural, LB with 1% glucose, 30 °C, 24 h
Description: (§1) The degrees of growth of Enterobacter cloacae strain GGT036 [Accession No. KCTC 12672BP], E. coli (Comparative Example 1), and Corynebacterium glutamicum (Comparative Example 2) in media containing 30 mM furfural were compared by turbidity measurements to identify the resistance of Enterobacter cloacae strain GGT036 to furfural.
(§2) The media used were LB media supplemented with 1% glucose. An observation was made to determine the dependence of the growth of the strains in the media containing 30 mM furfural (FIG. 2B) and the furfural-free media (FIG. 2A) on the presence or absence of furfural.
(§3) After 7 mL of each medium was added to a glass tube (24 mm), the colonies obtained in Example 1 were inoculated into the medium, followed by culture at 30° C. for 24 h.

[2] = tested on: Corynebacterium glutamicum (Comparative Example 2); assay: as above; settings: 30 mM furfural, LB with 1% glucose, 30 °C, 24 h
Description: as §1, §2, §3

[3] = tested on: E. coli (Comparative Example 1); assay: as above; settings: 30 mM furfural, LB with 1% glucose, 30 °C, 24 h
Description: as §1, §2, §3

[4] = tested on: Enterobacter cloacae strain GGT036 [Accession No. KCTC 12672BP]; assay: Inhibition of growth by furfural (Test Example 2); settings: for IC50: LB medium with 1% glucose, 30 °C
Description: (§4) The term “IC50” refers to the concentration of the toxic substance required to inhibit the maximum growth of the microorganism by 50%.
LB media were supplemented with 1% glucose as a carbon source to prepare culture media. To the culture media was added furfural at different concentrations of 20 mM, 40 mM, and 60 mM. The growth rates of the strain in the furfural-containing media were compared with the growth rate of the strain in the furfural-free medium.
After 50 mL of each culture medium was added to an Erlenmeyer flask, Enterobacter cloacae strain GGT036 [Accession No. KCTC 12672BP] was inoculated at an initial OD600 of 1, followed by culture at 30 ° C.
(§5) The half maximal inhibitory concentration (IC50) values of furfural were calculated. As a result, the IC50 value against Enterobacter cloacae strain GGT036 [Accession No. KCTC 12672BP]

[5] = tested on: E. coli; assay: Inhibition of growth by furfural, IC50 (Test Example 2); settings: Escherichia coli; against E. coli; read-out: half maximal inhibitory concentration (IC50) of furfural
Description: as §4, §5

[6] = tested on: Corynebacterium glutamicum; assay: as above; settings: against Corynebacterium glutamicum; read-out: half maximal inhibitory concentration (IC50) of furfural

O=Cc1ccco1 [furfural]
growth of strain in furfural-containing medium [1]: cell growth was observed | growth of strain in furfural-containing medium [2]: not grown | growth of strain in furfural-containing medium [3]: not grown | OD value of culture ([4]; 60 mM furfural, after 30 h of culturing, initial OD600 of 1): ≤ 2 | IC50 ([4]; Enterobacter cloacae, read-out: half maximal inhibitory concentration (IC50) of furfural, against Enterobacter cloacae strain GGT036): 45 to 55 mM | growth rate of strain ([4]; furfural concentration increasing from 0 mM to 40 mM): slightly retarded | IC50 ([4]; read-out: half maximal inhibitory concentration (IC50) of furfural, against Enterobacter cloacae strain GGT036): 47.7 mM | IC50 [5]: 24.9 mM | IC50 [6]: 10 mM
